{"source": "patent US4943646A", "about": "“Gallium complexes and solvent extraction of gallium” (Monsanto Company, priority 1987, dated 1990)", "key": {"[1]": {"assay": "Stirred-beaker extraction, 2% H2SO4 wash and 30% H2SO4 strip of gallium from phosphate treater dust leachate (Examples 1-7)", "conditions": "5 minutes extraction", "procedure": "A gallium extraction was carried out in a stirred beaker, utilizing N-ethylnaphthenohydroxamic acid as extracting agent. A 20 ml solution that was 1.6 M in the hydroxamic acid in a petroleum distillate fraction (Kermac 470-B) was provided in the beaker by mixing 11.632 grams of 80.6% purity N-ethylnaphthenohydroxamic with the petroleum distillate to bring the volume to 20 ml. An equal volume of an aqueous phosphate treater dust leachate solution containing gallium was added. The gallium level in the leachate solution was 597 ppm and its pH was 1.55. The extraction was carried out at circa 55°-60° C. with stirring, and sampling of the aqueous phase at intervals (with interruption of the stirring).\nAt the end of the extraction, the organic and aqueous phases were separated. The organic phase was washed three times with 20 ml portions of 2% sulfuric acid, the washings being conducted at 57°-59° C. for five minutes each. […] The organic phase was then combined with 20 ml of 30% H2 SO4 in a procedure to strip the gallium. The stripping was carried out at about 60° C. with sampling at intervals to determine the amount of gallium present in the aqueous phase."}, "[2]": {"assay": "Extent of hydrolysis of hydroxamic acids after extraction, washing and stripping, by spectrophotographic analysis", "conditions": "for % DECOMPOSITION: additional, less careful determinations (untitled table); for % Decomposition (hydrolysis of hydroxamic acid): after extraction-wash-strip cycle, Table 4", "source_text": "The method measures the apparent molecular absorbance at λ max where the maximum peak is obtained for a monohydroxamato iron (III) complex obtained by treating a specified quantity of the hydroxamic acid solution with an aqueous solution of ferric nitrate and nitric acid and n-butanol. The method is specific for hydroxamic acids and utilizes a peak in the 495-530 nanometer region of the spectrum."}, "[3]": {"assay": "Organic solubility and viscosity of organic solutions (Table 13)", "type": "physicochemical", "text": "The organic solubilities and viscosity characteristics of N-alkylalkanohydroxamic acids, in comparison with N-H hydroxamic acids, are reported in Table 13."}, "[4]": {"assay": "Hydroxamic acid in the aqueous phase (Example 24)", "type": "physicochemical", "conditions": "for HA in aqueous phase: Table 19", "experimental": "A solution was prepared containing 30% by weight N-methyl naphthenohydroxamic acid in kerosene solvent containing 5% by volume isodecanol. A gallium sulfate solution was prepared by mixing 1 ml of an aqueous gallium sulfate solution, 90.8 grams/liter concentration, with 25 ml deionized water. The thus prepared solution was blended with 25 ml of the N-methyl naphtheno hydroxamic acid solution and 800 microliters of 10N NaOH was added from a microburette. […] The gallium had been extracted into the organic solution. The aqueous phase was replaced with an equal volume of 0.1M sodium acetate, which gave a pH 8.21. A 60 microliter amount of 10N NaOH was added, which gave a 9.3 pH after the phases were blended for 20 minutes. […] Additional increments of l0N NaOH were added and gallium concentrations were determined after blending, with results as reported in Table 19. All blending operations were conducted at about 60° C.\nThe results in Table 19 indicate that the stripping into the aqueous phase is almost negligible at pH below about 11, and in fact the 15 ppm values reported are at about the limit of the analytical method used. […] It appears that efficient extraction can be effected under alkaline conditions ranging from pH 7 to about 11. In the initial result at pH 11.91, a large amount of the hydroxamic acid was stripped into the aqueous phase. However, after an additional amount of isodecanol was added, the phases were easily separated and hydroxamic acid was not found in the aqueous phase. Thus, for pH over about 11.5 it is greatly advantageous to have a coordination solvent such as a long-chain alkanol or other water-insoluble alcohol present in substantial quantity, such as around 20% or more by volume of the organic solvents present. The coordinating solvent modifier assists in phase separation and in avoiding undue loss of the hydroxamic acid to the aqueous stripping solution. Of course stripping the gallium can be accomplished despite significant loss of the hydroxamic acid, and the hydroxamic acid can be recycled with the stripping solution or recovered therefrom."}, "[5]": {"assay": "Analysis of hydroxamic acid remaining after acid stripping (Example 11)", "type": "physicochemical", "text": "The organic solutions remaining after the acid stripping were washed with water and the petroleum ether was stripped under vacuum. […] Analysis of the unsubstituted naphthenohydroxamic acid indicated 91% decomposition. This example also indicates the usefulness of diluting the organic phase with a volatile, water immiscible organic solvent to provide more complete stripping of metal. After stripping the extractant is regenerated by distilling off the volatile solvent. Both organic liquids are recycled."}, "[6]": {"assay": "Percentage of extractant pulled into the aqueous phase by Fe (III) in 0.25M H2SO4", "type": "physicochemical", "conditions": "Fe (III) in 0.25M H2SO4 (pH=0.3), 22 °C", "experimental": "Tests were conducted on a series of hydroxamic acids to determine the percentages of the extractants pulled into an aqueous phase from an organic phase, by Fe (III) in 0.25M H2 SO4 (pH=0.3) at 22° C. The conditions represent a severe test of aqueous solubility since the pH favors FeA^++ formation, where A=hydroxamate anion. […] With regard to hydroxamic acids with n less than 6, a compound with n=4, i.e. N-methyl hexanohydroxamic acid, was approximately 35% pulled into the aqueous phase."}, "[7]": {"conditions": "below 0.01M nitric acid; cited from earlier work"}}, "note": "Where two headings read alike, the source gives them in different places.", "data": [{"compound": "neodecanohydroxamic acid", "values": [{"measurement": "Ga remaining in aqueous phase", "setting": "[1]", "result": 3, "unit": "ppm"}]}, {"compound": "N-ethylnaphthenohydroxamic acid", "values": [{"measurement": "% DECOMPOSITION", "setting": "[2]", "result": 1.0, "unit": "%"}, {"measurement": "% Decomposition (hydrolysis of hydroxamic acid)", "setting": "[2]", "result": -0.53, "unit": "%"}]}, {"compound": "CCCCCCCCCCc1ccc(C(=O)N(C)O)cc1", "note": "[N-methyl 4-decylbenzo HA]", "values": [{"measurement": "% DECOMPOSITION", "setting": "[2]", "result": 38.6, "unit": "%"}]}, {"compound": "N-methylneodecanohydroxamic acid", "values": [{"measurement": "% DECOMPOSITION", "setting": "[2]", "result": 0.13, "unit": "%"}]}, {"compound": "N-methylnaphthenohydroxamic acid", "values": [{"measurement": "VISCOSITY ORGANIC SOL.", "setting": "[3]", "result": "Medium"}, {"measurement": "HA in aqueous phase", "setting": "[4]; b715 pH 10.57, b719 after adding 10 ml isodecanol", "result": "negative"}, {"measurement": "HA in aqueous phase", "setting": "[4]; pH 11.91", "result": 0.65, "unit": "M"}, {"measurement": "test for hydroxamic acid in aqueous phase", "setting": "[4]; pH 8.26", "result": "negative"}, {"measurement": "extractant concentration after stripping (original 1M)", "setting": "[5]; possibly mechanical losses and some dilution", "result": 0.8744, "unit": "M"}, {"measurement": "% Decomposition (hydrolysis of hydroxamic acid)", "setting": "extraction-wash-strip cycle", "result": "+0.14%"}, {"measurement": "% DECOMPOSITION", "setting": "used extractant solutions", "result": 4.99, "unit": "%"}]}, {"compound": "N-methyl isostearohydroxamic acid", "values": [{"measurement": "VISCOSITY ORGANIC SOL.", "setting": "[3]; Table 13", "result": "V. Low"}, {"measurement": "solubility in KEROSENE", "setting": "[3]; Table 13", "result": "V. Soluble (V. Soluble = dissolves in molar quantities (>1) (V = very))"}, {"measurement": "solubility in KEROSENE WITH ISODECANOL", "setting": "[3]; Table 13", "result": "V. Soluble (V. Soluble = dissolves in molar quantities (>1) (V = very))"}]}, {"compound": "naphthenohydroxamic acid [reference compound]", "values": [{"measurement": "VISCOSITY ORGANIC SOL.", "setting": "[3]; Table 13", "result": "High"}, {"measurement": "solubility in KEROSENE", "setting": "[3]; Table 13", "result": "Low"}, {"measurement": "solubility in KEROSENE WITH ISODECANOL", "setting": "[3]; Table 13", "result": "Low"}, {"measurement": "decomposition", "setting": "[5]; after acid stripping", "result": 91, "unit": "%"}, {"measurement": "% DECOMPOSITION", "setting": "[2]", "result": 42.5, "unit": "%"}, {"measurement": "% Decomposition (hydrolysis of hydroxamic acid)", "setting": "[2]", "result": 45, "unit": "%"}, {"measurement": "% Decomposition (hydrolysis of hydroxamic acid)", "setting": "[2]; listed as N--H naphthenohydroxamic acid", "result": 45.0, "unit": "%"}, {"measurement": "% Decomposition (hydrolysis of hydroxamic acid)", "setting": "[2]; listed as unsubstituted hydroxamic acid", "result": 45, "unit": "%"}, {"measurement": "Ga remaining in aqueous phase", "setting": "[1]", "result": 3.6, "unit": "ppm"}]}, {"compound": "CCCCCC(=O)N(C)O", "note": "[N-methyl hexanohydroxamic acid]", "values": [{"measurement": "extractant pulled into the aqueous phase", "setting": "[6]", "result": "approximately 35%"}]}, {"compound": "N-n-propylnaphthenohydroxamic acid", "values": [{"measurement": "% DECOMPOSITION", "setting": "[2]", "result": 4.6, "unit": "%"}, {"measurement": "% Decomposition (hydrolysis of hydroxamic acid)", "setting": "[2]", "result": "+0.74%"}]}, {"compound": "CCCCCCCC(=O)NO", "note": "[caprylhydroxamic acid]", "values": [{"measurement": "hydrolysis", "setting": "[7]", "result": "hydrolysis occurs rather slowly"}]}, {"compound": "neotridecanohydroxamic acid", "values": [{"measurement": "VISCOSITY ORGANIC SOL.", "setting": "[3]; Table 13", "result": "High"}, {"measurement": "solubility in KEROSENE", "setting": "[3]; Table 13", "result": "Soluble"}, {"measurement": "solubility in KEROSENE WITH ISODECANOL", "setting": "[3]; Table 13", "result": "Soluble"}]}]}
